In patent publication US20070248705A1, “Agents for Activating the Transcription Factor Nrf2 and Foods Having Such Function” (KIRIN BEER KABUSHIKI KAISHA, priority 2004, published 2007):

System: TNF-α
Test: Suppression of TNF-α production by macrophages (TPA and IFN-γ)
Type: cell-based, mouse
Details: RAW264.7, TPA 400 nM and IFN-γ 10 units/ml, 5, 10, 20, and 40 μM, 24 hours
Method: A mouse macrophage cell line RAW264.7 (4×10^4 cells/well) was seeded on a 96-well plate, […] of a D-MEM medium (Invitrogen) containing each sample, 10% fetal bovine serum (HyClone), and penicillin-streptomycin (100 units/ml and 100 μg/ml, respectively; Sigma) was added, and the plate was incubated at 37° C. in an atmosphere of 5% CO2 for 4 hours. Then 150 μl of a medium containing TPA (phorbol 12-tetradecanoate 13-acetate, Sigma), mouse IFN-γ (interferon-γ, eBioscience), and each sample was added and incubation was carried out for 24 hours. TPA and IFN-γ were added at a final concentration of 400 nM and 10 units/ml, respectively. As samples, isomerized hop extract was added at a concentration of 5, 10, 20, and 30 μ/ml and isohumulone (IH(F)) and isohumulone (IcH(G)) were added individually at a concentration of 5, 10, 20, and 40 μM.
After completing incubation, the amount of TNF-α in the culture fluid was measured using a mouse TNF-α ELISA kit(eBioscience). The amount of TNF-α was expressed as a relative value by setting the value for the control as 100% (n=3, mean±standard variation). As a positive control, 15dPGJ2 (Cayman Chemical) was used.

Question: How did the TNF-α production turn out when `CC(C)=CCC(=O)C1(O)C(O)=C(C(=O)CC(C)C)C(=O)C1CC=C(C)C` (stereo not shown) [IH (F), isohumulone] was run?
Answer: concentration-dependently suppressed
